Data on 33 compounds can be found in ChEMBL document CHEMBL6134881, “From Natural Products to Small Molecules: Recent Advancements in Anti-MRSA Therapeutics” (ACS Med Chem Lett, 2025).

Values after ≈ are worked out from the molar mass of the structure shown. Some results are limits rather than exact numbers.

For one data set, the system named is Staphylococcus aureus. Put plainly: Antibacterial activity against Staphylococcus aureus ATCC 25923 assessed as reduction in bacterial growth incubated for 24 hrs by broth micro-dilution method. The data set is classed as functional.
Conditions: not given
With `C=C[C@]1(C)C[C@@H](OC(=O)CS[C@@H]2C[C@H]3CC[C@@H](C2)N3C)[C@]2(C)[C@H](C)CC[C@]3(CCC(=O)[C@H]32)[C@@H](C)[C@@H]1O` [RETAPAMULIN], the minimal inhibitory concentration (MIC) (usually the lowest concentration found to suppress growth) turned out to be 0.25 µg/mL (≈ 0.483 µM).
On the same count and under the same terms, under `C=C[C@]1(C)C[C@@H](OC(=O)CSC(C)(C)CNC(=O)[C@H](N)C(C)C)[C@]2(C)[C@H](C)CC[C@]3(CCC(=O)[C@H]32)[C@@H](C)[C@@H]1O` [VALNEMULIN] stands 0.06 µg/mL (≈ 0.106 µM).
Same read-out and setting: as for `C=C[C@]1(C)C[C@@H](OC(=O)CS[C@@H]2CC[C@@H](N)C[C@H]2O)[C@]2(C)[C@H](C)CC[C@]3(CCC(=O)[C@H]32)[C@@H](C)[C@@H]1O` [LEFAMULIN], the figure is 0.12 µg/mL (≈ 0.236 µM).
With `C=C[C@]1(C)C[C@@H](OC(=O)CSCCN(CC)CC)[C@]2(C)[C@H](C)CC[C@]3(CCC(=O)[C@H]32)[C@@H](C)[C@@H]1O` [TIAMULIN], the minimum inhibitory concentration (MIC) amounted to 0.25 µg/mL (≈ 0.506 µM).

Another data set concerns Staphylococcus aureus. Put plainly: Antibacterial activity against Staphylococcus aureus assessed as reduction in bacterial growth. The data set is classed as functional.
Conditions: not given
Regarding `Cn1cc(-c2ccc(Cn3cnc4c(N)ncnc43)cc2)nn1`, the minimum inhibitory concentration (MIC) is 16.6 µg/mL (≈ 54.3 µM).
As for `Cn1cc(-c2ccc(Cn3cnc4c(N5CCNCC5)ncnc43)nc2)nn1`, the minimal inhibitory concentration (MIC) was determined as 0.12 µg/mL (≈ 0.319 µM).
The same measure, in the same setting: as for `Cn1cc(-c2ccc(Cn3cnc4c(N5CCNCC5)ncnc43)cc2)nn1`, the figure is 0.25 µg/mL (≈ 0.666 µM).

Test system in a further data set: not listed separately
Put plainly: Solubility of compound.
Conditions: not given
The data set is classed as physicochemical.
As to `Cn1cc(-c2ccc(Cn3cnc4c(N5CCNCC5)ncnc43)nc2)nn1`, the solubility – broadly, the dissolved amount per volume that the medium holds – came to 114 µM (≈ 42.9 µg/mL).
Same read-out and setting: as for `Cn1cc(-c2ccc(Cn3cnc4c(N5CCNCC5)ncnc43)cc2)nn1`, the figure is 31 µM (≈ 11.6 µg/mL).

The test system of another data set is Staphylococcus aureus. Put plainly: Antibacterial activity against […] Staphylococcus aureus ATCC 29213 assessed as reduction in bacterial growth incubated for 16 to 18 hrs by CLSI protocol based Muller Hinton broth assay. The class given is functional. The following applies: time 16-18 hrs.
Turning to `C[C@@H]1CC[C@@]23CCC(=O)[C@H]2[C@]1(C)[C@H](OC(=O)CSc1ccncc1)CC(=O)[C@@H](O)[C@@H]3C`, the MIC was more than 16 µg/mL.
On to `CC[C@H]1C[C@@H](OC(=O)CS[C@@H]2CC[C@@H](N)C[C@H]2O)[C@]2(C)[C@H](C)C[C@]3(CCC(=O)[C@H]32)[C@@H](C)[C@@H]1O`, for which the MIC is more than 16 µg/mL.
Turning to `C[C@@H]1[C@@H](O)[C@H](C)[C@]23CCC(=O)[C@H]2[C@@](C)([C@H](C)CC3)[C@@H]1OC(=O)CS[C@@H]1CC[C@@H](N)C[C@H]1O`, the MIC is more than 32 µg/mL.
The same measure, in the same setting: as for `CC[C@@]1(C)C[C@@H](OC(=O)CSc2ccncc2)[C@]2(C)[C@H](C)CC[C@]3(CCC(=O)[C@H]32)[C@@H](C)[C@@H]1O`, the figure is 0.06 µg/mL (≈ 0.127 µM).

The test system of the next data set is HepG2. Description: Cytotoxicity against human HepG2 cells assessed as reduction in cell viability by measuring lethal concentration by SRB assay. The data set is classed as functional. The following applies: read-out: LC50 (the source's name). On the technique in general: Sulforhodamine B stains cellular protein and so reports cell mass.
Consider `OCc1ccc2cc(-c3ccc(O)c(C45CC6CC(CC(C6)C4)C5)c3)ccc2c1`, for which the CC50 was more than 32 µg/mL.
Regarding `O=C(O)c1ccc2cc(-c3ccc(O)c(C45CC6CC(CC(C6)C4)C5)c3)ccc2c1` [O-DEMETHYLATED ADAPALENE], the CC50 is 5 µg/mL (≈ 12.5 µM).

Another data set has as its system Staphylococcus aureus. Put plainly: Antibacterial activity against methicillin-resistant Staphylococcus aureus ATCC 43300 assessed as reduction in bacterial growth incubated for 18 hrs by mueller hinton broth dilution method. The data set is classed as functional.
Conditions: not given
Background: In broth dilution the organism is exposed to a series of concentrations in liquid medium.
As to `CC[N+](CC)=c1sc2c(s1)C(c1ccc(Cl)cc1)Oc1ccc(C)cc1-2.F[B-](F)(F)F` (configuration not stated), the MIC is 3.9 µg/mL.
Take `O=C(O)/C=C/c1ccc(-c2ccc(O)c(C34CC5CC(CC(C5)C3)C4)c2)cc1` [ADAROTENE]: the MIC was 2 µg/mL (≈ 5.34 µM).
On the same count and under the same terms, as for `CC[N+](CC)=c1sc2c(s1)C(c1ccc(Br)cc1)Oc1ccc(C)cc1-2.F[B-](F)(F)F` (configuration not stated), the figure is 1.95 µg/mL.
Same read-out and setting: under `OCc1ccc2cc(-c3ccc(O)c(C45CC6CC(CC(C6)C4)C5)c3)ccc2c1` stands 2 µg/mL (≈ 5.2 µM); under `CC[N+](CC)=c1sc2c(s1)C(c1ccc(F)cc1)Oc1ccc(C)cc1-2.F[B-](F)(F)F` (configuration not stated), 16.6 µg/mL; under `O=C(O)c1ccc2cc(-c3ccc(O)c(C45CC6CC(CC(C6)C4)C5)c3)ccc2c1` [O-DEMETHYLATED ADAPALENE], 1 µg/mL (≈ 2.51 µM).

The next data set has as its system Staphylococcus aureus. Put plainly: Antibacterial activity against methicllin-resistant Staphylococcus aureus. The data set is classed as functional.
Conditions: not given
In turn, `CC(C)=CCCC(O)COc1cccc2c1c1ccccc1n2C` (configuration not stated) had an MIC of more than 50 µg/mL.
The same measure, in the same setting: under `CCCCCn1c2ccccc2c2c(OCC(O)CCC=C(C)C)cccc21` (configuration not stated) stands 6.25 µg/mL (≈ 16.5 µM); under `CCCCCCCn1c2ccccc2c2c(OCC(O)CCC=C(C)C)cccc21` (configuration not stated), 12.5 µg/mL (≈ 30.7 µM).
Same read-out and setting: as for `CCCn1c2ccccc2c2c(OCC(O)CCC=C(C)C)cccc21` (configuration not stated), the figure is 50 µg/mL (≈ 142 µM); as for `CCCCCCCCCn1c2ccccc2c2c(OCC(O)CCC=C(C)C)cccc21` (configuration not stated), 6.25 µg/mL (≈ 14.3 µM); as for `CC(C)=CCCC(O)COc1cccc2c1c1ccccc1n2CC=C(C)C` (configuration not stated), 3.13 µg/mL (≈ 8.3 µM).

A further data set concerns Staphylococcus aureus. Description: Antibacterial activity against methicillin-resistant Staphylococcus aureus ATCC 33591. The class given is functional.
Conditions: not given
Regarding `CNC(=O)c1cc(Oc2ccc(NC(=O)Nc3ccccc3)cc2)ccn1`, the MIC is more than 100 µM.
On the same count and under the same terms, as for `CNC(=O)c1cc(Oc2ccc(NC(=O)Nc3ccc(Cl)c(C)c3)cc2)ccn1`, the figure is more than 100 µM; as for `CNC(=O)c1cc(Oc2ccc(NC(=O)Nc3ccc(Cl)c(C(F)(F)F)c3)cc2)ccn1` [SORAFENIB], 3 µM (≈ 1.39 µg/mL).
Still for that read-out and setting: as for `O=C(Nc1ccc2c(c1)OC(F)(F)O2)Nc1ccc(Cl)c(C(F)(F)F)c1`, the figure is 0.3 µM (≈ 0.118 µg/mL); as for `CNC(=O)c1cc(Oc2ccc(NC(=O)Nc3cccc(C(F)(F)F)c3)cc2)ccn1`, more than 100 µM.
On to `CCC(c1ccc(O)cc1)C(CC)c1ccc(O)cc1` (configuration not stated), for which the lowest concentration to inhibit growth (MIC) was 16 µM (≈ 4.33 µg/mL).
In turn, `Oc1c(Cl)cc(Cl)cc1Sc1cc(Cl)cc(Cl)c1O` [BITHIONOL] came in with a minimal inhibitory concentration (MIC) of 0.5 µM (≈ 0.178 µg/mL).
On the same count and under the same terms, as for `O=C(O)c1c(Sc2ccccc2)c2cc(Cl)ccc2n1Cc1ccc(Cl)cc1`, the figure is 1 µM (≈ 0.428 µg/mL).

Another data set relates to Staphylococcus aureus. Put plainly: Antibacterial activity against methicillin-resistant Staphylococcus aureus ATCC 33591 assessed as inhibition of bacterial growth incubated for 24 hrs by Mueller-Hinton broth assay. The class given is functional.
Conditions: not given
Regarding `C=CCc1ccc(O)c(-c2ccc(O)c(CC=C)c2)c1` [HONOKIOL], the MIC was determined as 10 µg/mL (≈ 37.5 µM).
Still for that read-out and setting: as for `C=CCc1ccc(O)c(-c2cc(CC=C)ccc2O)c1` [MAGNOLOL], the figure is 20 µg/mL (≈ 75.1 µM).
